Test results as given in ChEMBL document CHEMBL5316328, “Discovery of AXL Degraders with Improved Potencies in Triple-Negative Breast Cancer (TNBC) Cells” (J Med Chem, 2023).
Calls of active or inactive are those of the source. The rule behind the calls is not given here.

Biological target: T1, E3 ubiquitin-protein ligase ZFP91 (Homo sapiens) (UniProt Q96JP5)
T1 sequence (whole entry): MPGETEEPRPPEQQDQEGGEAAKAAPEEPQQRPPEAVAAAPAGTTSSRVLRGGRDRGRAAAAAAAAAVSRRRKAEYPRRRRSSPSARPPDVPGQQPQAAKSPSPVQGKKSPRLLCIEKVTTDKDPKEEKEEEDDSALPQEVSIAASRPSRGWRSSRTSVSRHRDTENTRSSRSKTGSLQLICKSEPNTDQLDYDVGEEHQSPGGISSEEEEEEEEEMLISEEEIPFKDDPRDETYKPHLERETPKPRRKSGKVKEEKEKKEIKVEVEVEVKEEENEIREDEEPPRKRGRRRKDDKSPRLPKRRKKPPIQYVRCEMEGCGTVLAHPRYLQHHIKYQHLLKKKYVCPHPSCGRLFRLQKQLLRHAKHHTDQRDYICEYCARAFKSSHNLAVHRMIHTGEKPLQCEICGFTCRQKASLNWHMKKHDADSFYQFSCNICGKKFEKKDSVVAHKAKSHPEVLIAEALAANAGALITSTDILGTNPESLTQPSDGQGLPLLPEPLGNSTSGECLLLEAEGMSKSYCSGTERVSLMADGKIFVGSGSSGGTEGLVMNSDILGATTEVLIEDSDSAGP
Assay: Induction of ZFP91 degradation in human MDA-MB-231 cells at 10 uM incubated for 24 hrs by Western blot analysis
Format: cell-based

## CCc1ccc2c(c1)c(=O)c(C(=O)Nc1ccc(Oc3ncnc4cc(OCCCCCC(=O)Nc5ccc6c(c5)CN(C5CCC(=O)NC5=O)C6=O)c(OC)cc34)c(F)c1)c(C)n2C (stereo unspecified)
  Activity: inactive
